14 compounds from patent publication US10611740B2, “Aryl dihydro-2H-benzo[b][1,4]oxazine sulfonamide and related compounds for use as agonists of RORγ and the treatment of disease” (Lycera Corporation, priority 2015, dated 2020) can be followed below.

Assay [1] has as its target T1, RORγ-LBD (Homo sapiens, UniProt P51449).
T1 construct: made in house; host or cells: SF9 cells (baculovirus)
T1 sequence (P51449 269-508 limits assumed): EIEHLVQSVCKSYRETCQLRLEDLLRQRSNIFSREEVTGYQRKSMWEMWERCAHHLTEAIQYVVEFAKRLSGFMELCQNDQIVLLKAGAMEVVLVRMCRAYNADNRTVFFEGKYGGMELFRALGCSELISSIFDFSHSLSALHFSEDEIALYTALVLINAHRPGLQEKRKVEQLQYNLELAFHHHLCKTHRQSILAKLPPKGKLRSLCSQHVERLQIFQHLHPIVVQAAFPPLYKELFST
The assay is described as follows: RORγ-Ligand Binding Domain (LBD) TR-FRET Assay.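 On TR-FRET Assay Max Response: 665/615 nm ratio relative to signal without ursolic acid or compound set at 100.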 The format is biochemical. The procedure, abridged:
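His-tagged RORγ-LBD from SF9 baculovirus lysate, ~3 nM final, in 50 mM Tris pH 7.0, 50 mM KCl, 1 mM EDTA, 0.1 mM DTT, 0.01% BSA. Biotinylated SRC1 LXXLL peptide at 200 nM final with 2 μM ursolic acid; TR-FRET read-out, 1% DMSO final.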

In assay [2] the target is T2, Gal4-RORγ-LBD (Homo sapiens, UniProt P51449).
T2 construct: expressed in transfected cells; host or cells: HEK-293 cells (pcDNA3.1neo plasmid)
T2 sequence (P51449 269-508 limits assumed): T1 sequence (P51449 269-508 limits assumed)
The assay can be described thus: Gal4-RORγ Luciferase Reporter Assay in HEK-293T Cells. Format: cell-based. The following applies: HEK-293 cells. The essentials:
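HEK-293 cells were transiently co-transfected with Gal4-RORγ-LBD and pGL4.31 Gal4-luciferase, with ursolic acid added at 2 μM final. Compounds were incubated overnight at 37° C. in 0.2% DMSO and luminescence read with One-Glo. Max Response is the upper plateau of a 4-parameter logistic fit, with signal lacking ursolic acid or compound set to 100.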
(Reporter assays use an easily measured gene product as a stand-in for the process of interest.)

The mark [3] stands for this setting: luciferase reporter, with 2 μM ursolic acid.

Broadly, the EC50 is the concentration needed to bring the measured effect to its halfway point.

As for `O=C(O)CC[C@H]1CN(S(=O)(=O)c2cccc(C(F)(F)F)c2)c2cc(-c3cccnc3-c3ccccc3)ccc2O1` [Compound 4AD, (S)-3-(6-(2-phenylpyridin-3-yl)-4-((3-(trifluoromethyl)-phenyl)sulfonyl)-3,4-dihydro-2H-benzo[b][1,4]oxazin-2-yl)propanoic acid], the EC50 in assay [1] and in assay [2] (setting [3]) was more than 10000 nM each time.
Take `CC(C)(C[C@H]1CN(S(=O)(=O)c2cccc(C(F)(F)F)c2)c2cc(-c3cccc(F)c3C(F)(F)F)ccc2O1)C(=O)O` [Compound 32BC, (S)-3-(6-(3-fluoro-2-(trifluoromethyl)phenyl)-4-((3-(trifluoromethyl)phenyl)sulfonyl)-3,4-dihydro-2H-benzo[b][1,4]oxazin-2-yl)-2,2-dimethylpropanoic acid]: in assay [1], the EC50 was less than 500 nM and the “TR-FRET Assay Max Response” value is listed as “** (The symbol “**” indicates a value in the range of greater than 90 to 150)”. In assay [2] (2 μM ursolic acid), the EC50 is less than 500 nM and the “Gal4-RORγ Assay Max Response” value is given as “** (The symbol “**” indicates a value in the range of greater than 90 to 150)”.
Turning to `C[C@@H](O)C(=O)NC[C@H]1CN(S(=O)(=O)c2cccc(C(F)(F)F)c2)c2cc(-c3cc(F)ccc3F)ccc2O1` [Compound 30AF, (R)-N-(((S)-6-(2,5-difluoro-phenyl)-4-((3-(trifluoromethyl)-phenyl)sulfonyl)-3,4-dihydro-2H-benzo[b][1,4]oxazin-2-yl)-methyl)-2-hydroxypropanamide], in assay [1], the concentration for a half-maximal effect (EC50) is less than 500 nM and the “TR-FRET Assay Max Response” value is “*** (The symbol “***” indicates a value in the range of greater than 150 to 200)”. Further, in assay [2] (setting [3]), the EC50 was less than 500 nM and the “Gal4-RORγ Assay Max Response” value is given as “** (The symbol “**” indicates a value in the range of greater than 90 to 150)”.
As for `COc1cc(F)cc(-c2ccc3c(c2)N(S(=O)(=O)c2cccc(C(F)(F)F)c2)C[C@H](CCNC(=O)C(C)(C)O)O3)c1F` [Compound 30F, (S)-N-(2-(6-(2,5-difluoro-3-methoxyphenyl)-4-((3-(trifluoromethyl)phenyl)sulfonyl)-3,4-dihydro-2H-benzo[b][1,4]oxazin-2-yl)ethyl)-2-hydroxy-2-methylpropanamide], in assay [1], the concentration giving a half-maximal response (EC50) is less than 500 nM and the “TR-FRET Assay Max Response” value is on record as “**** (The symbol “****” indicates a value greater than 200)”. In assay [2] (setting [3]), the half-maximal effective concentration (EC50) was less than 500 nM and the “Gal4-RORγ Assay Max Response” value is “* (The symbol “*” indicates a value in the range of 25 to 90)”.
As to `CC(C)(C[C@H]1CN(S(=O)(=O)c2cccc(C(F)(F)F)c2)c2cc(-c3cccc(OC(F)F)c3F)ccc2O1)C(=O)O` [Compound 32BJ, (S)-3-(6-(3-(difluoromethoxy)-2-fluorophenyl)-4-((3-(trifluoromethyl)phenyl)sulfonyl)-3,4-dihydro-2H-benzo[b][1,4]oxazin-2-yl)-2,2-dimethylpropanoic acid], in assay [1], the EC50 was less than 500 nM and the “TR-FRET Assay Max Response” value is given as “*** (The symbol “***” indicates a value in the range of greater than 150 to 200)”. Besides, in assay [2] (2 μM ursolic acid), the EC50 is less than 500 nM and the “Gal4-RORγ Assay Max Response” value is “** (The symbol “**” indicates a value in the range of greater than 90 to 150)”.
As for `O=C(CC[C@H]1CN(S(=O)(=O)c2cccc(C(F)(F)F)c2)c2cc(-c3cccc(Cl)c3)ccc2O1)N1CCOCC1` [Compound 23B, (S)-3-(6-(3-chlorophenyl)-4-((3-(trifluoromethyl)phenyl)sulfonyl)-3,4-dihydro-2H-benzo[b][1,4]-oxazin-2-yl)-1-morpholino-propan-1-one], in assay [1], the 50% effective concentration (EC50) was less than 500 nM and the “TR-FRET Assay Max Response” value is “**** (The symbol “****” indicates a value greater than 200)”. In addition, in assay [2] (setting [3]), the 50% effective concentration (EC50) was less than 500 nM and the “Gal4-RORγ Assay Max Response” value is “** (The symbol “**” indicates a value in the range of greater than 90 to 150)”.
On to `Cn1ccc(C(=O)NC[C@H]2CN(S(=O)(=O)c3cccc(C(F)(F)F)c3)c3cc(-c4cc(F)ccc4F)ccc3O2)n1` [Compound 30AI, (S)-N-((6-(2,5-difluorophenyl)-4-((3-(trifluoromethyl)phenyl)-sulfonyl)-3,4-dihydro-2H-benzo[b][1,4]oxazin-2-yl)methyl)-1-methyl-1H-pyrazole-3-carboxamide], for which, in assay [1], the 50% effective concentration (EC50) is less than 500 nM and the “TR-FRET Assay Max Response” value is on record as “*** (The symbol “***” indicates a value in the range of greater than 150 to 200)”. In addition, in assay [2] (setting [3]), the EC50 is less than 500 nM and the “Gal4-RORγ Assay Max Response” value is on record as “** (The symbol “**” indicates a value in the range of greater than 90 to 150)”.
Take `O=C(O)[C@H]1C[C@@H]1[C@H]1CN(S(=O)(=O)c2cccc(C(F)(F)F)c2)c2cc(-c3cc(F)ccc3F)ccc2O1` [Compound 54, (1S,2S)-2-((S)-6-(2,5-difluorophenyl)-4-((3-(trifluoromethyl)phenyl)sulfonyl)-3,4-dihydro-2H-benzo[b][1,4]oxazin-2-yl)cyclopropane-1-carboxylic acid]: in assay [1], the EC50 was less than 500 nM and the “TR-FRET Assay Max Response” value is listed as “** (The symbol “**” indicates a value in the range of greater than 90 to 150)”. In assay [2] (2 μM ursolic acid), the EC50 lay within 500 to 5000 nM and the “Gal4-RORγ Assay Max Response” value is given as “** (The symbol “**” indicates a value in the range of greater than 90 to 150)”.
On to `CC(C)(C[C@H]1CN(S(=O)(=O)c2cccc(C(F)(F)F)c2)c2cc(-c3cc(F)ccc3C(F)(F)F)ccc2O1)C(=O)O` [Compound 32AV, (S)-3-(6-(5-fluoro-2-(trifluoro-methyl)phenyl)-4-((3-(trifluoro-methyl)phenyl)sulfonyl)-3,4-dihydro-2H-benzo[b][1,4]oxazin-2-yl)-2,2-dimethylpropanoic acid], for which, in assay [1], the EC50 was less than 500 nM and the “TR-FRET Assay Max Response” value is “** (The symbol “**” indicates a value in the range of greater than 90 to 150)”. In assay [2] (2 μM ursolic acid), the EC50 is less than 500 nM and the “Gal4-RORγ Assay Max Response” value is “** (The symbol “**” indicates a value in the range of greater than 90 to 150)”.
With `COc1cc(F)cc(-c2ccc3c(c2)N(S(=O)(=O)c2cccc(C(F)(F)F)c2)C[C@H](CC(C)(C)C(=O)O)O3)c1F` [Compound 32C, (S)-3-(6-(2,5-difluoro-3-methoxyphenyl)-4-((3-(trifluoromethyl)phenyl)sulfonyl)-3,4-dihydro-2H-benzo[b][1,4]oxazin-2-yl)-2,2-dimethylpropanoic acid], in assay [1], the EC50 is less than 500 nM and the “TR-FRET Assay Max Response” value was “**** (The symbol “****” indicates a value greater than 200)”. In assay [2] (setting [3]), the 50% effective concentration (EC50) is less than 500 nM and the “Gal4-RORγ Assay Max Response” value was “** (The symbol “**” indicates a value in the range of greater than 90 to 150)”.
Consider `COc1cccc(-c2cc(F)c3c(c2)N(S(=O)(=O)c2cccc(C(F)(F)F)c2)C[C@H](CCC(=O)O)O3)c1` [Compound 22D, (S)-3-(8-fluoro-6-(3-methoxyphenyl)-4-((3-(trifluoromethyl)phenyl)sulfonyl)-3,4-dihydro-2H-benzo[b][1,4]-oxazin-2-yl)propanoic acid], for which, in assay [1], the EC50 was less than 500 nM and the “TR-FRET Assay Max Response” value is “**** (The symbol “****” indicates a value greater than 200)”. In addition, in assay [2] (setting [3]), the EC50 is less than 500 nM and the “Gal4-RORγ Assay Max Response” value was “** (The symbol “**” indicates a value in the range of greater than 90 to 150)”.
In the case of `CC1(C(=O)NC[C@H]2CN(S(=O)(=O)c3cccc(C(F)(F)F)c3)c3cc(-c4cc(F)ccc4F)ccc3O2)CC1` [Compound 30AV, (S)-N-((6-(2,5-difluorophenyl)-4-((3-(trifluoromethyl)phenyl)-sulfonyl)-3,4-dihydro-2H-benzo[b][1,4]oxazin-2-yl)methyl)-1-methylcyclo-propane-1-carboxamide], in assay [1], the half-maximal effective concentration (EC50) is less than 500 nM and the “TR-FRET Assay Max Response” value is given as “*** (The symbol “***” indicates a value in the range of greater than 150 to 200)”. In assay [2] (setting [3]), the EC50 was less than 500 nM and the “Gal4-RORγ Assay Max Response” value was “* (The symbol “*” indicates a value in the range of 25 to 90)”.
In the case of `O=C(O)CC[C@H]1CN(S(=O)(=O)c2cccc(C(F)(F)F)c2)c2cc(-c3cc(F)cc(F)c3F)ccc2O1` [Compound 4AK, (S)-3-(4-((3-(trifluoromethyl)-phenyl)sulfonyl)-6-(2,3,5-trifluorophenyl)-3,4-dihydro-2H-benzo[b][1,4]oxazin-2-yl)propanoic acid], in assay [1], the EC50 is less than 500 nM and the “TR-FRET Assay Max Response” value is “**** (The symbol “****” indicates a value greater than 200)”. Also, in assay [2] (setting [3]), the 50% effective concentration (EC50) was less than 500 nM and the “Gal4-RORγ Assay Max Response” value was “** (The symbol “**” indicates a value in the range of greater than 90 to 150)”.
For the compound `CC(C)c1ccc(-c2ccc3c(c2)N(S(=O)(=O)c2cccc(C(F)(F)F)c2)C[C@H](CCC(=O)O)O3)cc1` [Compound 2Z, (S)-3-(6-(4-isopropylphenyl)-4-((3-(trifluoromethyl)phenyl)-sulfonyl)-3,4-dihydro-2H-benzo[b][1,4]oxazin-2-yl)propanoic acid], the 50% effective concentration (EC50) is less than 500 nM in assay [1] and more than 10000 nM in assay [2] (setting [3]). The “TR-FRET Assay Max Response” value in assay [1] is recorded as “** (The symbol “**” indicates a value in the range of greater than 90 to 150)”.
